Assay results: patent US8729088B2, “Toll-like receptor modulators and treatment of diseases” (The Regents of the University of California, priority 2009, dated 2014)
Entries after “also recorded” stand apart in the source; their conditions may differ.

What was measured:
[1] = tested on: C57BL/6 mice immunized with ovalbumin (OVA); test: Adjuvanticity: subcutaneous immunization with OVA mixed with TLR7 conjugates; assay type: in vivo, mouse
Description: Each ELISA plate contained a titration of a previously quantitated serum to generate a standard curve. […] The various sera samples were tested at a 1:100 dilution.
Spleenocytes were prepared from the harvested spleens.
The efficiency of adjuvanticity was assessed by measurement of the levels and isotypes of the antigen-specific IgG that the vaccine induces, in particular IgG1 and IgG2 (Mosmann, T. R., and Coffman, R. L., ‘TH1 and TH2 cells: different patterns of lymphokine secretion lead to different functional properties’, Annual Review Immunology 7:145-73 (1989)). The groups of C57BL/6 mice (n=5 animals per group) were subcutaneously immunized with OVA (ovalbumin) mixed with TLR7 conjugates. […] Mice immunized with saline or OVA plus vehicle (0.1% DMSO) were used as negative controls.

TLR7 [2] = molecular target: T1, TLR7 (Mus musculus, UniProt P58681); test: In vitro cytokine induction in murine macrophages (RAW264.7, BMDM), ELISA; assay type: cell-based; set-up: endogenous in cells; host or cells: RAW264.7 (ATCC); primary BMDM from C57BL/6 mice; settings: for potency compared to the unconjugated TLR7 (SM): ELISA; for potency of cytokine induction in comparison to the unmodified TLR7 agonist: in vitro and in vivo
T1 sequence (P58681 27-1050): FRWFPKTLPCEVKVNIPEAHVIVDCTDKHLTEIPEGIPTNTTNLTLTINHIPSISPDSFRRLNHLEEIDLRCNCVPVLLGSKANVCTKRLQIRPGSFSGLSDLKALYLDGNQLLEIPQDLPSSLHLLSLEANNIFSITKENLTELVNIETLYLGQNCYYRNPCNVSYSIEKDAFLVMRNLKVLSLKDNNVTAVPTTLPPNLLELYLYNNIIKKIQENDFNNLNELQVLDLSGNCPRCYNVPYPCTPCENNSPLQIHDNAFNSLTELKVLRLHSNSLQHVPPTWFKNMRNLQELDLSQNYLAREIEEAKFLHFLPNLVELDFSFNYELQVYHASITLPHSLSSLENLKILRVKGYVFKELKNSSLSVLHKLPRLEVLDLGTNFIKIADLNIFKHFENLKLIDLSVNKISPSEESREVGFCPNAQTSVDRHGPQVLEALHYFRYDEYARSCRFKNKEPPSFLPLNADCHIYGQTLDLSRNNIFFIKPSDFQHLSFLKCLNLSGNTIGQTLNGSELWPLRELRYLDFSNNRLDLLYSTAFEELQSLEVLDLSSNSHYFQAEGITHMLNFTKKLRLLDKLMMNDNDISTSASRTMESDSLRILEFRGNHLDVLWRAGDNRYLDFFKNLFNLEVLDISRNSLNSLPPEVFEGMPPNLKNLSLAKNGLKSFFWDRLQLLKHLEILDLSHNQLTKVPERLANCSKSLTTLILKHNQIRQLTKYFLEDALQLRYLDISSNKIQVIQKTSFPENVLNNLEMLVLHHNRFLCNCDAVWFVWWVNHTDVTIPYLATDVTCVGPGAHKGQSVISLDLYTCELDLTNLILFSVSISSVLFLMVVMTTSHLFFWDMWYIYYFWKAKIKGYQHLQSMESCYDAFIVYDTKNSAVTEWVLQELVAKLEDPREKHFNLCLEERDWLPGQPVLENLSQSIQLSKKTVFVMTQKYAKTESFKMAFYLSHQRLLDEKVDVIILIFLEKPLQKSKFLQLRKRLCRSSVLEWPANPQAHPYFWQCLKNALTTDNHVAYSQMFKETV
Description: (§1) In vitro measurements of cytokine induction were performed using the mouse leukemic monocyte macrophage cell line, RAW264.7. […] BMDM were prepared from C57BL/6 and TLR7 deficient mice as described in Wu, C. C et al., (2007) “Immunotherapeutic activity of a conjugate of a Toll-like receptor 7 ligand”, Proc Natl Acad Sci USA 104, 3990-5.
(§2) In general, RAW264.7 cells or BMDM were incubated with various concentrations of conjugates for 18 hours at 37° C., 5% CO2 and culture supernatants were collected. The levels of cytokines (IL-6, IL-12 or TNF-α in the supernatants were determined by ELISA (BD Biosciences Pharmingen, La Jolla, Calif.) (Cho, H. J et al., “Immunostimulatory DNA-based vaccines induce cytotoxic lymphocyte activity by a T-helper cell-independent mechanism” [see comments], Nat Biotechnol 18, 509-14 (2000)), and the results presented in FIG. 2A-D. Data are mean±SEM of triplicates and are representative of three independent experiments. Minimum detection levels of these cytokines were 15 pg/mL.
TNFα levels were measured (see FIG. 2A) by incubating approximately 1×10^6/mL RAW 264.7 cells with the various conjugates or controls, as described above. IL-6 and IL12 levels were measured (see FIG. 2B-D) by incubating 0.5×10^6/mL BMDM with the various conjugates or controls, as described above.
Using a similar assay, the in vitro potency of the lipid-TLR agonist conjugates (FIG. 1, compound 6), PEG-TLR7 agonist conjugates (FIG. 1, compound 8), and PEG-lipid (FIG. 1, compound 9) conjugates were compared using a murine macrophage cell line, RAW264, and primary bone marrow derived macrophages (BMDM). The respective cells were stimulated for 18 hours with serially diluted TLR7 conjugates and the levels of cytokines released in the media were measured by ELISA and compared to the unconjugated TLR7 agonist (SM) (see FIG. 2A, panels A-D).

TLR7 [3] = molecular target: T1, TLR7; test: Cytokine induction in BMDM from wild type and TLR7 deficient mice; assay type: cell-based; set-up: endogenous in cells; host or cells: primary BMDM from C57BL/6 mice; settings: wild type BMDM
Description: as §1, §2

Solubility observations = assay type: physicochemical
[4] = tested on: pro-inflammatory cytokines (IL-6, TNF-α) in sera; test: In vivo kinetics of pro-inflammatory cytokine induction after intravenous injection; set-up: species or system mouse
Description: The pharmacokinetics of pro inflammatory cytokine induction by TLR7 conjugates was examined using 6- to 8-week old C57BL/6 mice. […] Blood samples were collected 2, 4, 6, 24 or 48 hours after injections. Sera were separated and kept at −20° C. until use.

C57BL/6 mice [5] = test: MOG induced experimental autoimmune encephalomyelitis (EAE)
Description: The effect of compound (8) on experimental autoimmune encephalomyelitis (EAE) was determined using C57BL/6 mice treated with myelin oligodendrocyte glycoprotein (MOG).
Treatment with MOG (or MOG peptides) may be used to induce EAE. Mice were treated with MOG protein for 6 days. On day 6 and onward (see FIG. 8), 50 nmoles of compound (8) or PBS were intravenously (i.v.) injected everyday. EAE clinical scores were used as a clinical metric for demyelination and were determined visually.
MOG protein was also used to evaluate potential adverse effect of various TLR7 conjugates, as described above. Evaluation of the results were by observation of various symptoms associated with MOG induced EAE (e.g., brain inflammation, demyelination of neurons and the like).

C57BL/6 mice [6] = test: Serum transferred arthritis (K/BxN serum); assay type: in vivo, mouse
Description: The anti-inflammatory efficacy of TLR7 agonist-PEG conjugates was tested in mouse models of human inflammatory diseases (serum transfer arthritis, experimental allergic encephalomyelitis (EAE) (see above), and thioglycollate induced peritonitis).

| Compound | Th1 response (IgG2a levels) ([1]; mouse, in vivo) | Th2 immune response (IgG1 levels) ([1]; mouse, in vivo) | potency compared to the unconjugated TLR7 (SM) (TLR7 [2]; RAW264, BMDM, 18 hours) | potency of cytokine induction in comparison to the unmodified TLR7 agonist (TLR7 [2]) | agonist activity (IL-12, IL-6) (TLR7 [3]) | solubility in aqueous solution (Solubility observations) | IL-6 induction in serum ([4]; 200 nmol per animal i.v.) | TNFα induction in serum ([4]; 200 nmol per animal i.v., any point post injection) | IL-6 or TNFα stimulating activity ([4]; FIGS. 4A-B) | antagonistic activity ([4]; concluded from FIGS. 4A-B, 7A-B and 8) | EAE clinical score / severity of symptoms (C57BL/6 mice [5]; 50 nmoles i.v. every day from day 6, days 11-17) | adverse reaction (C57BL/6 mice [5]; mouse, in vivo) | paw swelling (C57BL/6 mice [6]; daily gavage) | paw swelling (C57BL/6 mice [6]; daily subcutaneous injection) | onset of induction of anti-OVA antibodies ([1]; OVA mixed with conjugate, s.c., days 0 and 7) [days] | OVA-specific IFNγ secretion by spleen cells ([1]; day 56 splenocytes restimulated with OVA) | anti-OVA IgG2a levels ([1]; serum, ELISA, days 0-56) | dissolution in suitable solvents for testing (Solubility observations) | potency as a cytokine inducer compared to the unconjugated agonist (TLR7 [2]; normalized to the molar level of the unconjugated agonist, RAW264, BMDM, 18 hours) [fold] |
| --- | --- | --- | --- | --- | --- | --- | --- | --- | --- | --- | --- | --- | --- | --- | --- | --- | --- | --- | --- |
| CCCCCCCC/C=C\CCCCCCCC(=O)OCC(COP(=O)(O)OCCNC(=O)CCc1cn(CCOCCOCCOCCOCCOCCOCCOCCOCCOCCOCCNC(=O)c2ccc(Cn3c(O)nc4c(N)nc(OCCOC)nc43)cc2)nn1)OC(=O)CCCCCCC/C=C\CCCCCCCC (centres unmarked) [Compound 9, 2-(3-(1-(1-(4-((6-amino-8-hydroxy-2-(2-methoxyethoxy)-9H-purin-9-yl)methyl)phenyl)-1-oxo-5,8,11,14,17,20,23,26,29,32-decaoxa-2-azatetratriacontan-34-yl)-1H-1,2,3-triazole-4-yl)propanamido)ethyl 2,3-bis(oleoyloxy)propyl phosphate] | minimal Th1 response | induce a Th2 immune response | restored their potency to the similar level of the unconjugated TLR7 (SM) | restored | active |  |  |  |  |  |  |  |  |  |  |  |  |  |  |
| COCCOc1nc(N)c2nc(O)n(Cc3ccc(C(=O)NCCOCCOCCOCCOCCOCCOCCOCCOCCOCCOCCn4cc(CCC(=O)O)nn4)cc3)c2n1 [Compound 8, 3-(1-(1-(4-((6-amino-8-hydroxy-2-(2-methoxyethoxy)-9H-purin-9-yl)methyl)phenyl)-1-oxo-5,8,11,14,17,20,23,26,29,32-decaoxa-2-azatetratriacontan-34-yl)-1H-1,2,3-triazol-4-yl)propanoic acid] |  |  | less potency | attenuated | active | improves dramatically | only a low level | no significant induction | little or no IL-6 or TNFα stimulating activity | antagonistic activity under certain conditions | significantly reduces the severity of EAE symptoms | no additional adverse reaction | reduced paw swelling | reduced paw swelling |  |  |  |  |  |
| CCCCCCCC/C=C\CCCCCCCC(=O)OCC(COP(=O)(O)OCCNC(=O)c1ccc(Cn2c(=O)[nH]c3c(N)nc(OCCOC)nc32)cc1)OC(=O)CCCCCCC/C=C\CCCCCCCC (centres unmarked) [Compound 6, 2-(4-((6-amino-2-(2-methoxyethoxy)-8-oxo-7H-purin-9(8H)-yl)methyl)benzamido)ethyl 2,3-bis(oleoyloxy)propyl phosphate] |  |  |  |  | active |  |  |  |  |  |  |  |  |  | 14 | enhanced | continuously increased; also recorded: rapid elevation; also recorded: sustained and further accelerated levels | difficulty in dissolution | 10 |
